Laboratory results from patent US8680113B2, “BMI-1 protein expression modulators” (PTC Therapeutics, Inc., priority 2008, dated 2014).

Legend:
[1] = test system: Bmi-1; assay: Sandwich ELISA Assay (Bmi-1 ELISA in HT-1080 cells); format: cell-based, human
Procedure, shortened: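 Lysate Bmi-1 was quantified against a recombinant GST-Bmi-1 standard (0-8000 pg/mL) by sandwich ELISA read at OD450 with OD570 reference. The ELISA used mouse monoclonal capture, rabbit anti-Bmi-1, HRP anti-rabbit IgG and TMB. Before lysis, HT-1080 cells seeded at 8000/well were exposed to compounds for 40-48 h at 37°C with 0.5% final DMSO.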

[2] = test system: Bmi-1; assay: Western Blot Analysis: Bmi-1 levels in MCL cell lines; format: cell-based; conditions: MCL cells cultured for 72 hrs, FIG. 2
Method: Western Blot analysis was used to determine cytoplasmic protein levels of Bmi-1 and activation of key executioner proteins (Caspases 3, 7, 8, 9) involved in apoptosis. Protein levels were measured in Bmi-1 inhibitor-treated mantle cell lymphoma cell lines. […] Cells were harvested at each time point, washed with ice-cold PBS, and lysed with 1× lysis buffer (20 mM Tris-HCl (pH 7.5), 150 mM NaCl, 1 mM Na2EDTA, 1 mM EGTA, 1% Triton, 2.5 mM sodium pyrophosphate, 1 mM beta-glycerophosphate, 1 mM Na3VO4, 1 μg/ml leupeptin; Cell Signaling Technology; Danvers, Mass.). Protein concentrations were determined using Pierce BCA protein assay (Thermo Scientific; Rockford, Ill.). Electrophoresis of cell lysates (25 μg) were performed with Mini Protean Systems by Bio-Rad Laboratories and run in Bio-Rad Readymade Pre-Cast Gels (4-20% Tris-HCl gels). Proteins were transferred onto PVDF membrane (Bio-Rad), and immunoblotted with anti-Bmi-1-clone F6 antibody (Millipore; Temecula, Calif.) and Caspases 3, 7, 8 and 9 (Cell Signaling Technology; Danvers, Mass.).

[3] = test system: HT1080 cells (human fibrosarcoma cells); format: in vivo, nude mice
Method: (§1) HT1080 cells (human fibrosarcoma cells) were implanted subcutaneously in nude mice. After seven days, mice were administered compounds subcutaneously at 30 or 60 mg/kg/day for ten days. The tumors were then excised from mice and homogenized in Tris-HCl buffer containing a cocktail of proteinase inhibitors. Intratumor Bmi-1 levels were subsequently measured using the Bmi-1 ELISA assay of Example 1. Protein concentrations of the homogenates were measured with a Bio-Rad Protein assay kit and intratumor Bmi-1 levels were normalized to the protein concentrations. Treatment with the compound for ten days inhibited tumor growth by 35% as compared to the vehicle-treated control groups. […] Since p27 expression is not regulated by Bmi-1 activity, no changes in the levels of this protein were observed within treated tumors.

[4] = test system: Bmi-1; assay: In-Vivo Xenograft Model: intratumor Bmi-1 levels by Bmi-1 ELISA; set-up: species or system nude mice; conditions: subcutaneously at 30 or 60 mg/kg/day for ten days, compared to the vehicle control (p<0.002)
Method: as §1

[5] = test system: Bmi-1; assay: Cell Model Assay: Bmi-1 expression in K562; format: cell-based; conditions: K562 (chronic myelogenous leukemia)
Method: (§2) Using assay conditions known to those skilled in the art, the ability of the compounds described herein to reduce Bmi-1 expression in HT1080 (fibrosarcoma), U87-MG (glioblastoma), T98G (glioblastoma), K562 (chronic myelogenous leukemia) and KG1 (acute myelogenous leukemia) cell lines was tested (at test compound concentrations calculated from the ELISA assay data shown in Example 1) compared to puromycin as a control to provide the EC50 values shown in Table 2. The term “ND” means that data was not determined.

[6] = test system: Bmi-1; assay: Cell Model Assay: Bmi-1 expression in KG1; format: cell-based; conditions: KG1 (acute myelogenous leukemia)
Method: as §2

| Structure (SMILES) | IC50 [1] | Bmi-1 levels [2] | toxicity within treated mice ([3]; over the 10 day experiment) | inhibited tumor growth ([3]; subcutaneously at 30 or 60 mg/kg/day for ten days, compared to vehicle-treated control groups) | reduced intratumor Bmi-1 protein levels [4] | EC50 [5] | EC50 [6] |
| --- | --- | --- | --- | --- | --- | --- | --- |
| COc1ccc(Nc2nc(-c3c(C)nc4ncccn34)cs2)cc1 [Cpd 14, N-(4-methoxyphenyl)-4-(2-methylimidazo[1,2-a]pyrimidin-3-yl)thiazol-2-amine] | < 500 nM | time dependant decrease | – | – | – | – | – |
| COc1cc(Br)c(Nc2nc(-c3c(C)nc4ncccn34)cs2)c(Br)c1 [Cpd 1, N-(2,6-dibromo-4-methoxyphenyl)-4-(2-methylimidazo[1,2-a]pyrimidin-3-yl)thiazol-2-amine] | < 500 nM | – | no toxicity was observed | 35% | 67% | 374 nM | 321 nM |
